Here are results for ten molecules from patent US10034913B2, “Anti-angiogenic peptides and uses thereof” (Health Research, Inc., priority 2011, dated 2018).

The subject of data set [1] is HUVEC cells. In words: Expression of angiogenesis/vasculogenesis genes in HUVEC, enzymatically active vs inactive PSA. Type of data set: cell-based, human. The protocol:
(§1) Enzymatically active PSA, and PSA inactivated by incubation with Zinc^2+ [activity inhibited>75% by 5.0 μM of Zinc, inset FIG. 4] were compared for their respective effects on expression of genes involved in angiogenesis/vasculogenesis in HUVEC cells.

Data set [2] has as its system HUVEC. In words: Matrigel endothelial tube formation assay. Particulars: for reproducible anti-angiogenic activity: tested at 10 and 100 μM; for anti-angiogenic activity, inhibition of tube formation by HUVEC in Matrigel: 10 uM, 18 hr, FIGS. 14, 19, 20. It counts as cell-based, human. The text has this:
The 3-D model of human PSA, the amino acid sequence of the initial five candidate peptides, and their color-coded location on the exterior of the PSA protein molecule in aqueous solution, are presented in FIG. 8. Five PSA-mimetic peptides with >90% purity were acquired from GeneScript Corporation, Piscataway, N.J., and tested for anti-angiogenic activity against HUVECs in the Matrigel tube formation assay with intact PSA as the control (FIGS. 9 &10). Briefly, to perform these assays, 10^4 HUVEC cells are mixed with the PSA mimetic peptide, and, the mixture placed on top of a solidified, pre-poured Matrigel layer in a flat bottomed well of a multi-chambered plate, and the culture incubated for 16-18 hr to allow time for the endothelial cells to migrate and form tubular structures. At the conclusion of the incubation, digital images were made from the center of each culture to avoid bias, and 3-4 wells for each test condition were imaged. The images are processed under the Analyze 7.0 and “Angioquant” software packages, for imaging and quantification. The total length of tubular structures in the image is determined, and averaged over the replicate cultures. This method of quantification allows for accurate, unbiased measurement of tube lengths. Peptides having each of the peptide sequences shown in FIG. 8 are encompassed within the scope of the invention, including all modifications and substitutions to the sequences as described supra.
The experimental endpoint, measured by digital image analysis, is the total area of the image comprised of endothelial cells (tubes). […] While the reason for the decrease in the amount of anti-angiogenic activity in this figure when the concentration of the peptides is increased from 10 to 100 μM is not clear, it may be related to a dosing response observed in this case. […] FIG. 10 presents the evaluation of anti-angiogenic activity for peptides #1 and #3 relative to the level of inhibition by native PSA, averaged over multiple experiments with different parental populations of HUVEC cells. Across multiple sets of experiments, both peptides inhibited the angiogenic activity of HUVEC by 35-40% relative to native PSA.
FIG. 13 is a graphical representation of data showing anti-angiogenic activity of f-PSA, PSA-P3L, and PSA-P3C by inhibiting tube formation by HUVEC in a Matrigel assay. To produce the results summarized in FIG. 13, a 24-well tissue culture plate was coated with 200 ul/well of Matrigel and incubated for 30 min at 37 C. Approximately 80,000 HUVEC in 0.5 ml of media supplemented with f-PSA or PSA-P3L, PSA-P3C was applied on top of the Matrigel layer and cells were incubated for 18 hr at 37 C foe endothelial cell tube formation. Live cell images (4× magnification) were taken using Nikon Eclipse TE300 inverted microscope system and analyzed using Spot Advance software program. Five images were taken/well. The images were processed further using Analyze 7.0 (AnalyzeDirect, Inc., Overland Park, Kans.) and Angioquant v1.33 to obtain the average tube length for each image. Percent inhibition is expressed in relation to tube length in untreated control cells.

For data set [3], the target named is T1, Mu-His-Ser-Ser-Lys-Leu-Gln—AFC (Homo sapiens, UniProt P07288).
T1 construct: The 237 amino acid protein (25-261) were used in the studies that include PSA as described herein; from tissue; host or cells: human seminal plasma (f-PSA); human prostate cancer tissue specimens (T-PSA)
Description: Enzymatic activity of isolated PSA, hydrolysis of fluorogenic substrate. It counts as biochemical. The protocol: In particular, enzymatic activity of PSA isolated from human seminal plasma (f-PSA) and from human prostate cancer tissue specimens (Tissue-PSA: T-PSA) was evaluated routinely using a substrate (Mu-His-Ser-Ser-Lys-Leu-Gln—AFC) (SEQ ID NO:102) (Calbiochem) that is highly specific for PSA. […] PSA in the tissue microenvironment (T-PSA) is largely free and enzymatically active. T-PSA levels are lower in advanced prostate cancer than benign prostate, and T-PSA levels correlate with prognosis in prostate cancer, as well as in breast cancer; the higher the T-PSA level, the better the prognosis.
(§2) Hydrolysis of the fluorogenic substrate was quantitated using a LS-45 Luminescence Spectrometer from Perkin Elmer) using the FL-Winlab® program. Human prostate cancer tissue specimens were obtained from the Pathology Resource Network at Roswell Park Cancer Institute under an IRB approved protocol.

The target of data set [4] is T2, PSA (Homo sapiens, UniProt P07288).
T2 construct: The 237 amino acid protein (25-261) were used in the studies that include PSA as described herein; from tissue; host or cells: human seminal plasma (f-PSA); human prostate cancer tissue specimens (T-PSA)
Description: Inhibition of PSA enzymatic activity by zinc. It counts as biochemical. The protocol: as §2, §1

Data set [5] has as its system FAK gene expression in HUVEC. In words: FAK gene expression in HUVEC, Real-time QPCR. Type of data set: cell-based, human. Particulars: 10 uM, average of three experiments. The protocol:
FIG. 16 is a graphical representation of data showing modulation of FAK gene expression in HUVEC by f-PSA and PSA-P3L. To produce the results summarized in FIG. 16, nearly confluent monolayers of HUVEC were treated with 10 uM of f-PSA or PSA-P3L; RNA extracted and reverse transcribed. The c-DNA was amplified by Real-time QPCR using specific primers. The results shown are the average of three experiments. […] The other experimental details are similar to all gene expression studies. Thus, in one embodiment, the invention provides a method for inhibiting FAK gene expression in human endothelial cells comprising contacting the cells with one or more peptides of the invention.

Data set [6] has as its system ANG2 gene expression in HUVEC. In words: ANG2 gene expression in HUVEC, Real-time QPCR. Type of data set: cell-based, human. The settings on record: 10 uM, average of three experiments. How it is done:
FIG. 18 is a graphical representation of data showing modulation of ANG2 gene expression in HUVEC by f-PSA, PSA-P31 and PSA-P3C. To produce the results summarized in FIG. 18, nearly confluent monolayers of HUVEC were treated with 10 uM of f-PSA, PSA-P3L or PSA-P3C; RNA extracted and reverse transcribed. The c-DNA was amplified by Real-time QPCR using specific primer. The results shown are an average of three experiments. […] Accordingly, in one embodiment, the invention provides a method for inhibiting ANG2 expression in human endothelial cells comprising contacting the cells with one or more peptides of the invention.

The test system of data set [7] is VEGF gene expression in HUVEC. Description: VEGF gene expression in HUVEC, Real-time QPCR. Type of data set: cell-based, human. The settings on record: 10 uM, average of three experiments. The protocol: FIG. 17 is a graphical representation of data showing modulation of VEGF gene expression in HUVEC by f-PSA, PSA-P3L and PSA-P3C. To produce the results summarized in FIG. 17, nearly confluent monolayers of HUVEC were treated with 10 uM of f-PSA or PSA-P3L; RNA extracted and reverse transcribed. The c-DNA was amplified by Real-time QPCR using specific primers. The results shown are average of three experiments. […] The data represents an average of three experiments. […] Thus, in one embodiment, the invention provides a method for inhibiting VEGF expression in human endothelial cells comprising contacting the cells with one or more peptides of the invention.

Data set [8] deals with FLT1 gene expression in HUVEC. In words: FLT1 gene expression in HUVEC, Real-time QPCR. The settings on record: 10 uM, average of three experiments. Type of data set: cell-based, human. How it is done: FIG. 15 is a graphical representation of data showing modulation of FLT1 gene expression in HUVEC by f-PSA and PSA-P31. […] To obtain the data summarized in this figure, nearly confluent monolayers of HUVEC were treated with 10 uM of f-PSA or PSA-P3L; RNA extracted and reverse transcribed. The c-DNA was amplified by Real-time QPCR using specific primer. The results shown are average of three experiments.

Bridges are numbered along the chain shown (N, C = ends). Where no end group is shown, it is not given here.

T2 sequence (P07288 25-261): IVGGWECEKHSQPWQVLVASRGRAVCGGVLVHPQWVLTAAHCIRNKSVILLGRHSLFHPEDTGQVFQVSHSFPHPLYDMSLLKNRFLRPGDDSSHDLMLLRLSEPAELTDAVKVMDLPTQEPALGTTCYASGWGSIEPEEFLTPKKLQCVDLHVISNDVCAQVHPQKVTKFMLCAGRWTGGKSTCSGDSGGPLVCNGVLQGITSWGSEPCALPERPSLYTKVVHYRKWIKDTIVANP
T1 sequence (P07288 25-261): as above

“PSA inactivated by incubation with Zinc^2+: PSA enzymatically inactivated by incubation with Zinc2+ (5.0 μM)”: in data set [1], the “expression of blood vessel development genes FAK, FLT, KDR, TWIST1, Cathepsin D and P-38” value is “equally effective”; the “negative modulation of expression of pro-angiogenic growth factors bFGF and VEGF” value is recorded as “equally effective”; the “positive modulation of expression of IFN-γ” value is on record as “equally effective”. The “inhibition of tube formation compared with native PSA” value in data set [2] (over the entire range of PSA concentrations studied) is recorded as “as inhibitory of tube formation as was native PSA”.
Turning to “T-PSA: PSA isolated from human prostate cancer tissue specimens”, the “enzymatic activity in the assay” value in data set [3] (fluorogenic substrate hydrolysis) is recorded as “demonstrated enzymatic activity”. For the same molecule, the “enzymatic activity relative to f-PSA from seminal plasma” value in data set [3] (per microgram of protein) was “roughly 50%”. Besides, the “inhibitory activity on endothelial tube formation” value in data set [2] (equi-molar concentrations of f-PSA and T-PSA) is reported as “equivalent inhibitory activity”.
For `[Cl-].[Cl-].[Zn+2]` [zinc chloride], the PSA activity inhibited in data set [4] (5.0 μM of Zinc) was more than 75%. Also, in data set [4] (pre-incubation with zinc chloride 5 μM), the “inhibition of enzymatic activity of f-PSA and T-PSA” value was “inhibited completely”.
For the molecule GRWTGGKSTCS [Peptide #4], the reproducible anti-angiogenic activity entry in data set [2] is “did not demonstrate reproducible anti-angiogenic activity”.
Regarding GWGSIEPEEFLTPKKLQ [Peptide #2], the reproducible anti-angiogenic activity entry in data set [2] is recorded as “did not demonstrate reproducible anti-angiogenic activity”.
Regarding SEPCALPERPS [Peptide #5], the reproducible anti-angiogenic activity result in data set [2] is listed as “did not demonstrate reproducible anti-angiogenic activity”.
Consider “KNRFLRPGDDSSH [Peptide #1, amino acids 107-119 of PSA]”, for which the “anti-angiogenic activity, inhibition of tube formation by HUVEC in Matrigel” value (from here on “anti-angiogenic activity, inhibition”) in data set [2] is recorded as “significantly inhibit”. In data set [2] (100 μM, FIG. 9), the “inhibition of tubule formation” value was “maximal inhibition”.
Regarding NDVAAQVHPQKVTKFMLAA [PSA-P3L], the FAK gene expression result in data set [5] is on record as “not significantly different”. Moreover, the ANG2 gene expression result in data set [6] was “not significantly different from control”. In addition, the VEGF gene expression result in data set [7] is given as “not significantly different from control”. Besides, the FLT1 gene expression entry in data set [8] was “effectively inhibit”. Moreover, the “anti-angiogenic activity, inhibition” value in data set [2] is reported as “significantly inhibit”.
For “Asn Asp Val Cys Ala Gln Val His Pro Gln Lys Val Thr Lys Phe Met Leu Cys Ala (Ac-NDVCAQVHPQKVTKFMLCA-NH2; disulfide 4-18 (inferred)) [PSA-P3C]”, the FAK gene expression entry in data set [5] was “significantly down-regulates”. Also, in data set [6], the ANG2 gene expression result is recorded as “significantly inhibited”. For the same molecule, the VEGF gene expression result in data set [7] is given as “significantly down-regulate”. For the same molecule, the “inhibition of HUVEC tube formation, cyclic versus linear peptide” value in data set [2] (at certain concentrations, FIG. 11) is on record as “even more efficiently than linear peptide”.
Consider “PSA-ACT Complex: f-PSA complexed with serine protease inhibitor alpha 1 anti-chymotrypsin (ACT)”, for which the “anti-angiogenic activity, inhibition” value in data set [2] was “significant loss of anti-angiogenic activity”; in data set [2] (listed as PSA-ACT complexes), “significantly reduced”.
